Results reported in publication PMC5448077, “Development of an orally available inhibitor of CLK1 for skipping a mutated dystrophin exon in Duchenne muscular dystrophy” (Scientific Reports, 2017).

Columns and labels:
Assay in all cases: biochemical
[1] = target: FGFR4 (Homo sapiens, UniProt P22455)
Procedure, shortened: (§1)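 Human kinases phosphorylating kinase-specific synthetic peptides, assayed by mobility shift (MSA) or IMAP fluorescence polarization, in 20 mM HEPES pH 7.5, 0.01% Triton X-100, 2 mM DTT with substrate/ATP-metal. Reactions ran 1 or 5 h at room temperature; activity = P/(P + S) from product and substrate peak heights.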

[2] = target: ROCK1 (Homo sapiens, UniProt Q13464)
Procedure, shortened: as §1

[3] = target: CDK2/CycA2 (Homo sapiens, UniProt P24941)
Procedure, shortened: as §1

[4] = target: DAPK1 (Homo sapiens, UniProt P53355)
Procedure, shortened: as §1

[5] = target: T1, SGK (Homo sapiens, UniProt O00141)
T1 construct: gene SGK1
Procedure, shortened: as §1

[6] = target: FGFR4(V550L) (Homo sapiens, UniProt P22455, V550L)
Procedure, shortened: as §1

[7] = target: FGFR3 (Homo sapiens, UniProt P22607)
Procedure, shortened: as §1

[8] = target: WNK3 (Homo sapiens, UniProt Q9BYP7)
Procedure, shortened: as §1

[9] = target: LCK (Homo sapiens, UniProt P06239)
Procedure, shortened: as §1

[10] = target: T2, PDGFRα (Homo sapiens, UniProt P16234)
T2 construct: gene PDGFRA
Procedure, shortened: as §1

[11] = target: T3, IKKα (Homo sapiens, UniProt O15111)
T3 construct: gene CHUK
Procedure, shortened: as §1

[12] = target: KIT(D816V) (Homo sapiens, UniProt P10721, D816V)
Procedure, shortened: as §1

[13] = target: CDC7/ASK (Homo sapiens, UniProt O00311)
Procedure, shortened: as §1

[14] = target: MARK2 (Homo sapiens, UniProt Q7KZI7)
Procedure, shortened: as §1

[15] = target: KIT(V560G) (Homo sapiens, UniProt P10721, V560G)
Procedure, shortened: as §1

[16] = target: T4, PEK (Homo sapiens, UniProt Q9NZJ5)
T4 construct: gene EIF2AK3
Procedure, shortened: as §1

[17] = target: T5, AurB (Homo sapiens, UniProt Q96GD4)
T5 construct: gene AURKB
Procedure, shortened: as §1

[18] = target: PIM2 (Homo sapiens, UniProt Q9P1W9)
Procedure, shortened: as §1

[19] = target: AXL (Homo sapiens, UniProt P30530)
Procedure, shortened: as §1

[20] = target: T6, LYNa (Homo sapiens, UniProt P07948)
T6 construct: gene LYN; isoform a
Procedure, shortened: as §1

[21] = target: T7, IRR (Homo sapiens, UniProt P14616)
T7 construct: gene INSRR
Procedure, shortened: as §1

[22] = target: T8, p38δ (Homo sapiens, UniProt O15264)
T8 construct: gene MAPK13
Procedure, shortened: as §1

[23] = target: MARK3 (Homo sapiens, UniProt P27448)
Procedure, shortened: as §1

[24] = target: ITK (Homo sapiens, UniProt Q08881)
Procedure, shortened: as §1

[25] = target: BRSK2 (Homo sapiens, UniProt Q8IWQ3)
Procedure, shortened: as §1

[26] = target: TYRO3 (Homo sapiens, UniProt Q06418)
Procedure, shortened: as §1

[27] = target: T9, AMPKα2/β1/γ1 (Homo sapiens, UniProt P54646)
T9 construct: gene PRKAA2
Procedure, shortened: as §1

[28] = target: AKT2 (Homo sapiens, UniProt P31751)
Procedure, shortened: as §1

[29] = target: NuaK1 (Homo sapiens, UniProt O60285)
Procedure, shortened: as §1

[30] = target: EGFR(L861Q) (Homo sapiens, UniProt P00533, L861Q)
Procedure, shortened: as §1

[31] = target: T10, AurA/TPX2 (Homo sapiens, UniProt O14965)
T10 construct: gene AURKA
Procedure, shortened: as §1

KIT(V560G), sequence (P10721 whole entry V560G): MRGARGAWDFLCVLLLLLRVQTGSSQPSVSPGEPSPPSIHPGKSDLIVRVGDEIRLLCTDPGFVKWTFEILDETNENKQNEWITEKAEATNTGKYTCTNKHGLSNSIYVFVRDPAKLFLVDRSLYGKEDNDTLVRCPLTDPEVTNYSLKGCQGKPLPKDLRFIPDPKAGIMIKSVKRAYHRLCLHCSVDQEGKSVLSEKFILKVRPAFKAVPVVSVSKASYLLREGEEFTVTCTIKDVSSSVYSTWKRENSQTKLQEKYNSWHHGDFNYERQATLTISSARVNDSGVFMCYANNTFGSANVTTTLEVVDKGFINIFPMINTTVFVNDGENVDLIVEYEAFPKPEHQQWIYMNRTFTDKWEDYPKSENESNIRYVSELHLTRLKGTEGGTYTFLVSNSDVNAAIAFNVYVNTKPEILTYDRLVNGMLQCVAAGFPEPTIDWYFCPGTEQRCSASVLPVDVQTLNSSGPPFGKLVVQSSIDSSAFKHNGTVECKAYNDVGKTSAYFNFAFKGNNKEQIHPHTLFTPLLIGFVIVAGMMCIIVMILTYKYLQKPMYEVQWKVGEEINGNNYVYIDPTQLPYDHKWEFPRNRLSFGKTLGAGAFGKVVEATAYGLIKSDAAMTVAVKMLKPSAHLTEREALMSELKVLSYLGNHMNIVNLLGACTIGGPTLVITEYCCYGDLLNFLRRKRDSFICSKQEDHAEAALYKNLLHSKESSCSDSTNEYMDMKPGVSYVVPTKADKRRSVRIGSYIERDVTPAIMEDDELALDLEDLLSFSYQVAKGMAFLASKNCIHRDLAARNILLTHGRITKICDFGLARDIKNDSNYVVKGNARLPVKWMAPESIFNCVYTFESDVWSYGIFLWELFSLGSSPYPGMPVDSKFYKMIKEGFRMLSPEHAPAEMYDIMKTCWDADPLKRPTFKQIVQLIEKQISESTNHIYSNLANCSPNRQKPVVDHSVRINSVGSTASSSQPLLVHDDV
NuaK1, sequence (O60285 whole entry): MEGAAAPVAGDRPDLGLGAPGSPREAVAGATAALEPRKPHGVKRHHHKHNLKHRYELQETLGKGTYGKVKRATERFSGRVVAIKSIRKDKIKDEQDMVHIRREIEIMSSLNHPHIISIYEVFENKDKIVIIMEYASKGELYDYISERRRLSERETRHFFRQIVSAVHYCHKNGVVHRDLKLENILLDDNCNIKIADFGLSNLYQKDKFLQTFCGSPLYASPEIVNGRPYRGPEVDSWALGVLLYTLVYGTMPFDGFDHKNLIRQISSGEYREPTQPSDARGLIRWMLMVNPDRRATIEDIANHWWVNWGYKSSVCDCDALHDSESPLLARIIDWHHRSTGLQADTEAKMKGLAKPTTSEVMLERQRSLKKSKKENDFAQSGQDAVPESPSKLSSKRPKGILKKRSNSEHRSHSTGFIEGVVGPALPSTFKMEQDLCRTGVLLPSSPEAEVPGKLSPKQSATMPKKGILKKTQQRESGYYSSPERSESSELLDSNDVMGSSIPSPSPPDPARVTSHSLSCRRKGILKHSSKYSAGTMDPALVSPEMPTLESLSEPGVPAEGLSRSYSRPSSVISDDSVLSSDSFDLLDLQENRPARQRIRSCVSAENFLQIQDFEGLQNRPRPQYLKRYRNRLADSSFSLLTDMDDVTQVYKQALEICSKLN
T3 sequence (O15111 whole entry): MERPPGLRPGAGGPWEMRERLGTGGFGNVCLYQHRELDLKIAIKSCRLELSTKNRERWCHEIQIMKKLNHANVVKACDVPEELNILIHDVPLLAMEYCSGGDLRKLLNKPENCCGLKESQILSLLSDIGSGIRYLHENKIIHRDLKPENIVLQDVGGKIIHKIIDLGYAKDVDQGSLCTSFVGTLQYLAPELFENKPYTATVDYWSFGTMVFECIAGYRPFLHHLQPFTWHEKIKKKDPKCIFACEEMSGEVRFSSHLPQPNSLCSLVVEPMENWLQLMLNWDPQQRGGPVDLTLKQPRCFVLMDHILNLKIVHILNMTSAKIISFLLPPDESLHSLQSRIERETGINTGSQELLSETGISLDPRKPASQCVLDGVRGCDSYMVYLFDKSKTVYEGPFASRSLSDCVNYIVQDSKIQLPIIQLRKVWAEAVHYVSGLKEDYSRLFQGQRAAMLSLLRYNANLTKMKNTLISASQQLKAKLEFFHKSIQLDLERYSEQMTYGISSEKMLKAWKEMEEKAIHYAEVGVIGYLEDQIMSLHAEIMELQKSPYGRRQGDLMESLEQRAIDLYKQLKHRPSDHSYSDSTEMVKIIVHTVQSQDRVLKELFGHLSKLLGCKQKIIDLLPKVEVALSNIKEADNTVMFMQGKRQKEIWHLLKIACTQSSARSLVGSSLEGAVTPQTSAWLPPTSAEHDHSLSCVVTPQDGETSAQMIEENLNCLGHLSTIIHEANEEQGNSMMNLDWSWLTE
MARK3, sequence (P27448 whole entry): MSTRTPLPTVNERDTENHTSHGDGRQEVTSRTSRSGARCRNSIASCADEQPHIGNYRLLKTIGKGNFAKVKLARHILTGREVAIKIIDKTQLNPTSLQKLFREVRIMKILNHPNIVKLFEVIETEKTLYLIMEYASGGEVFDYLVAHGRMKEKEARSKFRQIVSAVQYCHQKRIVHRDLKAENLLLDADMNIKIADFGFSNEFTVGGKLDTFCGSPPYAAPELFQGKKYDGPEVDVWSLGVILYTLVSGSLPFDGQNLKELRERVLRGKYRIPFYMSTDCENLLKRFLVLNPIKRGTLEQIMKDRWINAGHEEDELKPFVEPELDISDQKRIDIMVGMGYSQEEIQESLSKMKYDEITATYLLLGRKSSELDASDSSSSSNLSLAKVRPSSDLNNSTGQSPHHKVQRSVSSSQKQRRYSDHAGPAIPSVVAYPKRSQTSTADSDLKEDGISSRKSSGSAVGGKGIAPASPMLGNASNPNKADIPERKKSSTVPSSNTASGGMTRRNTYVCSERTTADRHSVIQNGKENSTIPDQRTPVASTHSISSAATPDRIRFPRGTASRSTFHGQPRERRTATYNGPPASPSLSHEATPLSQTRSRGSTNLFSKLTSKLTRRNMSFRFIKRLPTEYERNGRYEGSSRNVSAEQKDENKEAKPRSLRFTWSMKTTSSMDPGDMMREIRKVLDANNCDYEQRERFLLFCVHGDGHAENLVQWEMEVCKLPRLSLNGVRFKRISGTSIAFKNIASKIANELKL
AKT2, sequence (P31751 whole entry): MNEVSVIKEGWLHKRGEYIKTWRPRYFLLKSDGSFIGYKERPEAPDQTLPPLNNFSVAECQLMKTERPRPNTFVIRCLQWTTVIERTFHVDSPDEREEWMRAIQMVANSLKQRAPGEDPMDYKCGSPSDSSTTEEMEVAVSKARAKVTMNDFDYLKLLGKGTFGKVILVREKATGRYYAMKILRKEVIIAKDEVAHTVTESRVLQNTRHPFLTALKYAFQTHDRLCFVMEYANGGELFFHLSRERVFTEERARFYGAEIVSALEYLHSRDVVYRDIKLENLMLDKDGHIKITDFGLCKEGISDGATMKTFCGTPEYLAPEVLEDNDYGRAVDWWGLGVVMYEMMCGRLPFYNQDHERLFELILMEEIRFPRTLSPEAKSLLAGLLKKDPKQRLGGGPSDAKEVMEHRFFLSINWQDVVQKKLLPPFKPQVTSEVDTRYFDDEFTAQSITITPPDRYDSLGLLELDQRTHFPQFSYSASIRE
FGFR3, sequence (P22607 whole entry): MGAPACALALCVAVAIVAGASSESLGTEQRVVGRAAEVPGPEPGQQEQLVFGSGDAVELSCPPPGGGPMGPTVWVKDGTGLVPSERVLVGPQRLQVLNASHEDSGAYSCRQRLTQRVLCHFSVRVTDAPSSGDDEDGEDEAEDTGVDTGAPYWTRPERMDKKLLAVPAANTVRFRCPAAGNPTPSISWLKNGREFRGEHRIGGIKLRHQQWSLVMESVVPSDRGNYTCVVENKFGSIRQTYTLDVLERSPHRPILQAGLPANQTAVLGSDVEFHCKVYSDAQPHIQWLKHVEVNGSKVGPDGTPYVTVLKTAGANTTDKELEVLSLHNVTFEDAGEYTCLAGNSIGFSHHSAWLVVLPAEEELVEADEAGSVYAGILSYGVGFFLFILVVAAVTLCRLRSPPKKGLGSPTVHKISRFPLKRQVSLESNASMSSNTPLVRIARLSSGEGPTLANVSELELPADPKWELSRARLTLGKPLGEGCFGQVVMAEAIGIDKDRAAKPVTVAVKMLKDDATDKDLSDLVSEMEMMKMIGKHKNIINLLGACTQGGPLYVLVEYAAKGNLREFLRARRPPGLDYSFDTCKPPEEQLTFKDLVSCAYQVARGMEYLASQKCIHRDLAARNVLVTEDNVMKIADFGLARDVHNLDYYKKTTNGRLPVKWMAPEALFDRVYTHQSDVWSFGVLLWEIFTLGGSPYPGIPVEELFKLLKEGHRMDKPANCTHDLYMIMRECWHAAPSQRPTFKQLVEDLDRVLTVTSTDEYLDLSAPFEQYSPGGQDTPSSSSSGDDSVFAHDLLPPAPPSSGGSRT
PIM2, sequence (Q9P1W9 whole entry): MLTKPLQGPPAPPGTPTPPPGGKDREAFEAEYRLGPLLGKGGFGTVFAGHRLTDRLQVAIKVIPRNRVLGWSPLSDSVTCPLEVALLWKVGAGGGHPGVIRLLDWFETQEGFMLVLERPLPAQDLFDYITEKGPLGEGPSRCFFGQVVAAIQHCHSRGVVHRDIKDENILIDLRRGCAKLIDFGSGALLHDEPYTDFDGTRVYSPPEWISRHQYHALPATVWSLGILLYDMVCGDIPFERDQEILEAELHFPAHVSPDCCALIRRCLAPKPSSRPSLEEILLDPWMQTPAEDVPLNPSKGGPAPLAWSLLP
KIT(D816V), sequence (P10721 whole entry D816V): as the sequence (P10721 whole entry V560G) above, with G560V, D816V counted along it

c1cc(-c2ccc3[nH]ncc3c2)ccn1 [TG693, 5-(4-pyridinyl)-1H-indazole]
inhibition at 1 µM [1]: 4.3% | inhibition at 1 µM [2]: 27.6% | inhibition at 1 µM [3]: 41.4% | inhibition at 1 µM [4]: -1.8% | inhibition at 1 µM [5]: 5.6% | inhibition at 1 µM [6]: -36.6% | inhibition at 1 µM [7]: -0.6% | inhibition at 1 µM [8]: -4.9% | inhibition at 1 µM [9]: -8.4% | inhibition at 1 µM [10]: 6.2% | inhibition at 1 µM [11]: 14.6% | inhibition at 1 µM [12]: -1.1% | inhibition at 1 µM [13]: 10.8% | inhibition at 1 µM [14]: 20.3% | inhibition at 1 µM [15]: -2.6% | inhibition at 1 µM [16]: 5% | inhibition at 1 µM [17]: 6.1% | inhibition at 1 µM [18]: -3.5% | inhibition at 1 µM [19]: 3.5% | inhibition at 1 µM [20]: 0.1% | inhibition at 1 µM [21]: 3% | inhibition at 1 µM [22]: -0.7% | inhibition at 1 µM [23]: 15.5% | inhibition at 1 µM [24]: 2.8% | inhibition at 1 µM [25]: 6.7% | inhibition at 1 µM [26]: 0.3% | inhibition at 1 µM [27]: 1.7% | inhibition at 1 µM [28]: -3% | inhibition at 1 µM [29]: 7.5% | inhibition at 1 µM [30]: -5.4% | inhibition at 1 µM [31]: 8.5%
